Experimental data taken from patent US12370202B2, “Methods and compositions for inhibiting the NLRP3 inflammasome and/or LON protease” (TRITERPENOID THERAPEUTICS, INC., priority 2019, dated 2025).

How the values were obtained:
NLRP3 inflammasome = NLRP3 inflammasome activation in LPS-primed BMDM, IL-1β ELISA; type: cell-based, mouse
Protocol: FIG. 4A depicts an experimental design and FIG. 4B is a bar graph. Ixazomib (IXZ) potentiation of NLRP3 inflammasome activation inhibited by CDDO-2P-Im. Bone marrow derived macrophages (BMDM) were treated with Ixazomib (IXZ) and LPS (100 ng/ml) for 20 hours. Primed-BMDM were treated with CDDO-2P-Im (100 nM) for 15 min, followed by stimulation of ATP (5 mM) for 45 min. Supernatant were analyzed by ELISA for IL-1β release.
FIG. 6 is a set of bar graphs. CDDO-Im, CDDO-2P-Im (right panel), and CDDO-3P-Im (left panel) inhibit IL-1β production by NLRP3 inflammasome activation. LPS primed-BMDM were treated with different doses of CDDO-Im, CDDO-2P-Im, or CDDO-3P-Im for 15 min before ATP (5 mM) was added for 45 min. Supernatant were analyzed by ELISA for IL-1β.
To explore the potential that CDDO-2P-IM may enhance the MM response to proteasome inhibitors via inhibition of inflammasome activity, the effect of CDDO-2P-IM on activation of the NLRP3 complex (as defined by IL-1β production), in the presence or absence of IXZ in primary mouse bone marrow derived macrophages (BMDM) was evaluated. In the experiment, BMDM were primed by lipopolysaccharide (LPS) in the presence or absence of IXZ for 4 hours, followed by a brief ([…]) exposure to CDDO-2P-IM after which inflammasome activation was triggered by ATP.
The effects of the pyridyl derivatives of CDDO-IM, (specifically, CDDO-2P-Im and CDDO-3P-Im) on NLRP3 inflammasome activation were tested in mouse BMDMs. Cells were first primed with LPS for 4 hours, then pretreated with specific doses of either CDDO-Im, CDDO-2P-IM or CDDO-3P-Im (30-1000 nM) for 15 min before ATP was added for another 45 min. CDDO-Im and its pyridyl derivatives inhibited the amount of caspase-p10 (an auto-processed fragment of caspase-1) released into cell culture supernatants in a dose-dependent manner as measured by Western blot (FIG. 5). […] The effect on caspase-1 activation is specific for the NLRP3 inflammasome as the AIM2 inflammasome activation by poly(dA:dT) was not inhibited by the synthetic CDDO-Im derivatives (data not shown).

NLRP3 = experiment: Mono-sodium urate (MSU)-induced peritonitis; type: in vivo, Mice; conditions: MSU crystals 1 mg/mouse i.p.; lavage four to sixteen hours later
Protocol: FIG. 7 is a bar graph. CDDO-Im, CDDO-2P-Im, and CDDO-3P-Im inhibit mono-sodium urate (MSU)-induced peritonitis. Peritoneal cavity IL-1β levels expressed as mean and SEM (n=6).
Mice received intraperitoneal (i.p.) injections of mono-sodium urate (MSU) crystals (1 mg/mouse) in the presence or absence of CDDO-Im, CDDO-2P-Im, or CDDO-3P-Im. Due to its particulate material, MSU crystals are potent activators of the NOD-like receptor NLRP3. Four to sixteen hours later a peritoneal lavage was conducted to collect supernatant from the peritoneal cavity.

A2780 = experiment: Ovarian cancer cell growth (confluence), IncuCyte ZOOM; type: cell-based, human
Excerpt: (§1) FIG. 11 is a set of line graphs. Cisplatin resistant human ovarian cancer cell lines A2780, CP70, OV81, CP10, OVCAR-5 and OVCAR-8 were exposed to CDDO-2P-Im, cisplatin, or a combination of CDDO-2P-Im and cisplatin.
(§2) CDDO-2P-Im suppresses growth of cisplatin-resistant human ovarian cancer cells in vitro. Cisplatin resistant human ovarian cancer cell lines A2780, CP70, OV81, CP10, OVCAR-5 and OVCAR-8 cell were each cultured in a complete medium consisting of RPMI1640, 20% heat-inactivated FBS, 1% penicillin/streptomycin. Cells were cultured in a water jacketed CO2 incubator at 37° C. in a humidified atmosphere consisting of 5% CO2 and 95% air. Continuous live-cell analysis (CLCA) was used as a non-invasive cell monitoring and measurement method based on time-lapse, phase-contrast microscopy and fluorescence imaging, using IncuCyte® ZOOM. Cells were seeded in 96-well plates at densities of either 1×10^4 or 3×10^4 cell/cm^2 followed by addition of a drug dilution series for either CDDO-2P-Im or Cisplatin (P4394, Sigma) dissolved in PBS and diluted in media. […] Reduction in confluence is accompanied by the detachment and death of ovarian cancer cells.

CP10 = experiment: as above; type: cell-based, human
Excerpt: as §1, §2

CP70 = experiment: as above; type: cell-based, human
Excerpt: as §1, §2

OV81 = experiment: as above; type: cell-based, human
Excerpt: as §1, §2

OVCAR-5 = experiment: as above; type: cell-based, human
Excerpt: as §1, §2

OVCAR-8 = experiment: as above; type: cell-based, human
Excerpt: as §1, §2

[1] = suboptimal doses combined with cisplatin, significance at 0.005 or greater

CC1(C)CC[C@]2(C(=O)n3cnc(-c4ccccn4)c3)CC[C@]3(C)[C@H](C(=O)C=C4[C@@]5(C)C=C(C#N)C(=O)C(C)(C)[C@@H]5CC[C@]43C)[C@@H]2C1 [CDDO-2P-Im, 1-[2-Cyano-3,12-dioxooleana-1,9(11)-dien-28-oyl]-4(-pyridin-2-yl)-1H-imidazole]
IL-1β release, IXZ potentiation of NLRP3 inflammasome activation (NLRP3 inflammasome; BMDM primed with IXZ and LPS, CDDO-2P-Im 100 nM 15 min before ATP (5 mM) 45 min): inhibited
NLRP3 inflammasome activation (IL-1β production) (NLRP3 inflammasome; BMDM primed with LPS in absence of IXZ, ATP trigger): direct suppression
IL-1β production by NLRP3 inflammasome activation (NLRP3 inflammasome; LPS primed BMDM, different doses (30-1000 nM) 15 min before ATP (5 mM) 45 min, ELISA): inhibit
MSU-induced peritonitis (peritoneal cavity IL-1β levels) (NLRP3): inhibit
growth (confluence) (A2780; nanomolar concentrations): suppressed growth in a dose-dependent manner
ovarian cancer cell kill, combination with cisplatin (A2780; [1]): significant gain
sensitivity (growth) (CP10): highly sensitive
ovarian cancer cell kill, combination with cisplatin (CP10; [1]): significant gain
growth (confluence) (CP70; nanomolar concentrations): suppressed growth in a dose-dependent manner
ovarian cancer cell kill, combination with cisplatin (CP70; [1]): significant gain
sensitivity (growth) (OV81): highly sensitive
ovarian cancer cell kill, combination with cisplatin (OV81; [1]): significant gain
sensitivity (growth) (OVCAR-5): highly sensitive
ovarian cancer cell kill, combination with cisplatin (OVCAR-5; [1]): significant gain
sensitivity (growth) (OVCAR-8): highly sensitive
ovarian cancer cell kill, combination with cisplatin (OVCAR-8; [1]): significant gain
